Reference: patent US7256186B2, “Gamma secretase inhibitors” (Schering Corporation, priority 2002, dated 2007)
Like-named read-outs stand apart in the source and are kept apart here.

Target: T1, Gamma secretase (Homo sapiens, UniProt P49768)
T1 construct: endogenous in cells; host or cells: Salt-washed membranes of 293 T-REx cells, clone pTRE.15; Only the substrate SPC99-Lon is transfected (pcDNA4/TO, tetracycline-induced)
Assay: Gamma secretase activity assay on membranes of 293 cells expressing SPC99-Lon (Aβ 40 / Aβ 42 measured by ECL immunoassay)
Assay type: biochemical
Settings: membrane γ-secretase assay
Procedure: Upon insertion into the membrane, the 17 amino acid signal peptide is processed, leaving an additional leucine at the N-terminus of Aβ. SPC99-lon was cloned into the pcDNA4/TO vector (Invitrogen) and transfected into 293 cells stably transfected with pcDNA6/TR, which is provided in the T-REx system (Invitrogen). The transfected cells were selected in Dulbecco's modified Eagle's media (DMEM) supplemented with 10% fetal bovine serum, 100 units/mL penicillin, 100 µg/mL streptomycin, 250 µg/mL zeocin, and 5 µg/mL blasticidin (Invitrogen). Colonies were screened for Aδ production by inducing C99 expression with 0.1 g/mL tetracycline for 16–20 h and analyzing conditioned media with a sandwich immunoassay (see below). One of the clones, designated as pTRE.15, was used in these studies.
C99 expression in cells was induced with […] tetracycline for 20 h. The cells were pretreated with […] 12-myristate 13-acetate (PMA) and […] A (BFA) for 5–6 h at 37 C before harvesting. The cells were washed 3 times with cold phosphate-buffered saline (PBS) and harvested in buffer A containing 20 mM Hepes (pH 7.5), 250 mM sucrose, 50 mM KCl, 2 mM EDTA, 2 mM EGTA, and Complete protease inhibitor tablets (Roche Molecular Biochemicals). The cell pellets were flash-frozen in liquid nitrogen and stored at −70 C before use.
To make membranes, the cells were resuspended in buffer A and lysed in a nitrogen bomb at 600 psi. The cell lysate was centrifuged at 1500 g for 10 min to remove nuclei and large cell debris. The supernatant was centrifuged at 100000 g for 1 h. The membrane pellet was resuspended in buffer A plus 0.5 M NaCl, and the membranes were collected by centrifugation at 200000 g for 1 h. The salt-washed membrane pellet was washed again in buffer A and centrifuged at 100000 g for 1 h. The final membrane pellet was resuspended in a small volume of buffer A using a Teflon-glass homogenizer. The protein concentration was determined, and membrane aliquots were flash-frozen in liquid nitrogen and stored at −70 C. γ-Secretase Reaction and Aβ Analysis
To measure γ-secretase activity, membranes were incubated at 37 C for 1 h in 50 L of buffer containing 20 mM Hepes (pH 7.0) and 2 mM EDTA. At the end of the incubation, Aβ 40 and Aβ 42 were measured using an electrochemiluminescence (ECL)-based immunoassay. Aβ 40 was identified with antibody pairs TAG-G2–10 and biotin-W02, while Aβ 42 was identified with TAG-G2–11 and biotin-4G8. The ECL signal was measured using an ECL-M8 instrument (IGEN International, Inc.) according to the manufacturer's instructions. The data presented were the means of the duplicate or triplicate measurements in each experiment.

[1] = range stated for a group of examples, read-out: IC50 within the range stated, gamma secretase assay
[2] = 37 C, 1 h, read-out: IC50 (μM), γ-secretase inhibitory activity

Structure (SMILES)	IC50 [1] [µM]	IC50 [2] [µM]
O=C(OC1(C2CCCC(c3cccc(F)c3)N2S(=O)(=O)c2ccc(Cl)cc2)CC1)N1CCC2(CC1)NCNC2=O (centres unmarked) [Example 173-G]	0.0002 to 0.015	
O=C(OC[C@H]1CCC[C@@H](c2ccccc2F)N1S(=O)(=O)c1ccc(Cl)cc1)N1CCC(N2CCCCC2)CC1 [Example 67-E]	0.0002 to 0.015	
CC(C)N1CCN(C(=O)OC2([C@H]3CCC[C@@H](C4CC4)N3S(=O)(=O)c3ccc(Cl)cc3)CC2)CC1 [Example 161-E]	0.0002 to 0.015	
NC(=O)C1(N2CCCCC2)CCN(C(=O)OC2([C@H]3CCC[C@@H](c4cc(F)cc(F)c4)N3S(=O)(=O)c3ccc(Cl)cc3)CC2)CC1 [Example 173-J]	0.0002 to 0.015	0.0008
O=C(OC1([C@H]2CCC[C@@H](C3CC3)N2S(=O)(=O)c2ccc(Cl)cc2)CC1)N1CCC(N2CCCCC2)CC1 [Example 161-A]	0.0002 to 0.015	0.0028
CC1CC(N2CCCCC2)CCN1C(=O)OC[C@@H]1CCC[C@H](C2CC2)N1S(=O)(=O)c1ccc(Cl)cc1 (some centres unmarked) [Example 160-K]	0.0002 to 0.015	
NC(=O)C1(N2CCCCC2)CCN(C(=O)OC[C@H]2CCC[C@@H](c3cc(F)cc(F)c3)N2S(=O)(=O)c2ccc(Cl)cc2)CC1 [Example 67-BH]	0.0002 to 0.015	
O=C(OC[C@H]1CCC[C@@H](c2cc(F)cc(F)c2)N1S(=O)(=O)c1ccc(Cl)cc1)N1CCC(N2CCCCC2)CC1 [Example 67-BG]	0.0002 to 0.015	0.0023
O=C(OC[C@H]1CCC[C@@H](c2cccc(F)c2)N1S(=O)(=O)c1ccc(Cl)cc1)N1CCC(N2CCC(F)(F)CC2)CC1 [Example 67-N]	0.0002 to 0.015	
O=C(OC[C@H]1CCC[C@@H](c2cc(F)cc(F)c2)N1S(=O)(=O)c1ccc(Cl)cc1)N1CCC(N2CCCCC2)CC1 [Example 67-AT]		0.0038
Cc1cc([C@@H]2CCC[C@H](COC(=O)N3CCC(N4CCCCC4)CC3)N2S(=O)(=O)c2ccc(Cl)cc2)ccc1F [Example 67-BE]	0.0002 to 0.015	
C=C1CCN(C2CCN(C(=O)OC[C@H]3CCC[C@@H](c4cccc(F)c4)N3S(=O)(=O)c3ccc(Cl)cc3)CC2)CC1 [Example 67-P]	0.0002 to 0.015	
O=C(OC1([C@H]2CCC[C@@H](c3cc(F)cc(F)c3)N2S(=O)(=O)c2ccc(Cl)cc2)CC1)N1CCN(C2CCCCC2)CC1 [Example 173-K]	0.0002 to 0.015	
NC(=O)C1(N2CCCCC2)CCN(C(=O)OC2(C3CCCC(c4cccc(F)c4)N3S(=O)(=O)c3ccc(Cl)cc3)CC2)CC1 (centres unmarked) [Example 173-E]	0.0002 to 0.015	0.0027
O=C(OC1(C2CCCC(c3cccc(F)c3)N2S(=O)(=O)c2ccc(Cl)cc2)CC1)N1CCC(N2CCCCC2)CC1 (centres unmarked) [Example 173-A]	0.0002 to 0.015	0.0007
CC1(N2CCCCC2)CCN(C(=O)OC[C@H]2CCC[C@@H](c3cccc(F)c3)N2S(=O)(=O)c2ccc(Cl)cc2)CC1 [Example 67-BA]	0.0002 to 0.015	
O=C(OC1([C@H]2CCC[C@@H](c3ccc(F)cc3F)N2S(=O)(=O)c2ccc(Cl)cc2)CC1)N1CCC(N2CCCCC2)CC1 [Example 173-I]	0.0002 to 0.015	
O=C(OC1([C@H]2CCC[C@@H](c3cc(F)cc(F)c3)N2S(=O)(=O)c2ccc(Cl)cc2)CC1)N1CCC(N2CCCCC2)CC1 [Example 173]	0.0002 to 0.015	0.0002
O=C(OC1([C@H]2CCC[C@@H](C3CC3)N2S(=O)(=O)c2ccc(Cl)cc2)CC1)N1CCN(CC2CC2)CC1 [Example 161-F]	0.0002 to 0.015	
O=C(OC1(C2CCCC(c3cccc(F)c3)N2S(=O)(=O)c2ccc(Cl)cc2)CC1)N1CCN(C2CCCCC2)CC1 (centres unmarked) [Example 173-B]	0.0002 to 0.015	
O=C(OC[C@H]1CCC[C@@H](c2cc(F)ccc2F)N1S(=O)(=O)c1ccc(Cl)cc1)N1CCC(N2CCCCC2)CC1 [Example 67-BL]	0.0002 to 0.015	
O=C(OC[C@H]1CCC[C@@H](c2cccc(F)c2)N1S(=O)(=O)c1ccc(F)cc1)N1CCC(N2CCCCC2)CC1 [Example 67-U]	0.0002 to 0.015	
O=C(OC[C@H]1CCC[C@@H](c2cccc(F)c2)N1S(=O)(=O)c1ccc(Cl)cc1)N1CCC(N2CCCCC2)CC1 [Example 67-B]	0.0002 to 0.015	0.0027
O=C(OC[C@H]1CCC[C@@H](c2ccc(F)c(F)c2)N1S(=O)(=O)c1ccc(Cl)cc1)N1CCC(N2CCCCC2)CC1 [Example 67-BD]	0.0002 to 0.015	
O=C(OC[C@@H]1CCC[C@H](C2CC2)N1S(=O)(=O)c1ccc(Cl)cc1)N1CCN(C2CCCCC2)CC1 [Example 160-B]	0.0002 to 0.015	
O=C(OC1(C2CCCC(c3cccc(F)c3)N2S(=O)(=O)c2ccc(Cl)cc2)CC1)N1CCN(CCO)CC1 (centres unmarked) [Example 173-C]	0.0002 to 0.015	0.0018
O=C(OC1([C@H]2CCC[C@@H](c3cc(F)cc(F)c3)N2S(=O)(=O)c2ccc(Cl)cc2)CC1)N1CCC2(CC1)C(=O)NCN2c1ccccc1 [Example 173-L]	0.0002 to 0.015	
